# Reference: paper PMC10699557, “A recombinant approach for stapled peptide discovery yields inhibitors of the RAD51 recombinase” (Chemical Science, 2023)
# Numbered stars: 1 amine (or outer) side, 2 acyl side, 3 side chain; on linkers, the order of the positions; unused ones are H or OH. Bridge positions count the residues as written; N and C are the ends. Peptide text beside a SMILES is read from it. X1 = Nc1nc(CC[*:1])cc(CC[*:2])n1
# Experiments:
# [1] = tested on: RAD51:dT60 nucleoprotein filament (full-length human RAD51); assay: Electrophoretic mobility shift assay (EMSA) of nucleoprotein filament disruption; type: biochemical; settings: 5 μM full-length human RAD51, 100 nM FAM-dT60, varying peptide concentrations; 50 mM HEPES pH 7.4, 1 mM ATP
# Description: We evaluated the effect of stapled peptides SP2, SP24 and SP30 on the nucleoprotein filament using electrophoretic mobility shift assay (EMSA, Fig. 3D). A fluorescently labelled dT60 oligonucleotide was incubated with full-length RAD51, after which the peptides were added at different concentrations before separating the products on a polyacrylamide gel.
# (§1) Isothermal titration calorimetry
# (§2) Peptides were resuspended in MilliQ water to 10 times the desired final concentration.
# This was then diluted 10x with the ITC buffer to obtain the final titrant solution (20 mM CHES pH 9.5, 150 mM NaCl, 0.1% Tween-20). HumRadA22 was buffer-exchanged on a NAP-5 desalting column (Cytiva) into ITC buffer and protein concentration was adjusted to 10:9 of the desired final value. One ninth volume of MilliQ water was added to the solution to bring the protein concentration to the desired final value, while maintaining identical buffer:MilliQ volume proportions in both the syringe and the cell. ITC was carried out using a Microcal ITC200 or Malvern PEAQ ITC instruments at 25°C with a 5.00 μCal reference power DP value, stirring speed of 500-750 rpm, 2 sec filter period. Injection spacing, speed and volume, cell/syringe concentrations as well as the number of injections were adjusted for each peptide and its binding properties. ITC data were fitted using a single-site binding model using the Microcal ITC data analysis program in the Origin 7.0 package. Data points affected by baseline spikes were omitted from the analysis.
# Circular dichroism spectroscopy
# (§3) Dried peptides were dissolved in MilliQ water to 0.3 mg/ml, and then two-fold diluted in 20 mM sodium phosphate, pH 7.4, giving a final solution of 0.15 mg/ml peptide in 10 mM sodium phosphate. CD spectra of selected peptides were recorded on an AVIV 410 circular dichroism spectropolarimeter using a 1 mm path length quartz cuvette. […]
# (§4) The ability of linear and stapled BRC repeat peptides to dissociate RAD51-ssDNA nucleofilament was evaluated using an electrophoretic mobility shift assay (EMSA). […]
# [2] = target: HumRadA22 (Pyrococcus furiosus, UniProt O74036); assay: Isothermal titration calorimetry (ITC) of peptide binding; design: species or system archaeal RadA mutant with human Rad51 surface residues; settings: Fig. S3; stapled Arg9-fused peptide
# Description: We then evaluated the binding of free peptides to HumRadA22 using FP competition assay and isothermal titration calorimetry (Table 1 and Fig. 3B and C). […] All three peptides SP2, SP24 and SP30 bound with similar low-nanomolar affinities in ITC, and the binding appears to be slightly weaker relative to the linear BRC8-2 template (Fig. 3C).
# as §1, §2
# This was then diluted 10x with the ITC buffer to obtain the final titrant solution (20 mM CHES pH 9.5, 150 mM NaCl, 0.1% Tween-20). HumRadA22 was buffer-exchanged on a NAP-5 desalting column (Cytiva) into ITC buffer and protein concentration was adjusted to 10:9 of the desired final value. […]
# as §3, §4
SMILES,Depolymerisation of RAD51 from single-stranded DNA (EMSA) [1],Binding affinity towards HumRadA22 by ITC (in words) [2]
CC(C)C[C@@H]1NC(=O)[C@H](CCCCN)NC(=O)[C@H](CCCCN)NC(=O)CNC(=O)[C@H](CO)NC(=O)[C@H](C)NC(=O)[C@H]([C@@H](C)O)NC(=O)[C@H](CO)NC(=O)[C@H](Cc2ccccc2)NC(=O)CNC(=O)[C@H](CO)NC(=O)[C@@H](NC(=O)CN)CSCCc2cc(nc(N)n2)CCSC[C@@H](C(=O)N[C@@H](CCC(N)=O)C(=O)N[C@@H](CCCCN)C(=O)N[C@@H](C)C(=O)N[C@H](C(=O)N[C@@H](CCCCN)C(=O)N[C@@H](CC(C)C)C(=O)N[C@@H](Cc2ccccc2)C(=O)N[C@@H](CO)C(=O)NCC(=O)O)C(C)C)NC(=O)[C@H](C)NC(=O)[C@H](CCC(N)=O)NC(=O)[C@H]([C@@H](C)O)NC(=O)[C@H](CO)NC(=O)[C@H](C(C)C)NC(=O)[C@H](CC(N)=O)NC1=O [SP30] (H-GCSGFSTASGKKLNVSTQACQKAVKLFSG-OH; linker 2-20 via X1),depolymerise RAD51 from single-stranded DNA to similar extent,
CC(C)C[C@@H]1NC(=O)[C@H](CCCCN)NC(=O)[C@H](CCCCN)NC(=O)CNC(=O)[C@H](CO)NC(=O)[C@H](C)NC(=O)[C@H]([C@@H](C)O)NC(=O)[C@H](CO)NC(=O)[C@H](Cc2ccccc2)NC(=O)CNC(=O)[C@H](CO)NC(=O)[C@@H](NC(=O)CNC(=O)CNC(=O)[C@H](CCCNC(=N)N)NC(=O)[C@H](CCCNC(=N)N)NC(=O)[C@H](CCCNC(=N)N)NC(=O)[C@H](CCCNC(=N)N)NC(=O)[C@H](CCCNC(=N)N)NC(=O)[C@H](CCCNC(=N)N)NC(=O)[C@H](CCCNC(=N)N)NC(=O)[C@H](CCCNC(=N)N)NC(=O)[C@H](CCCNC(=N)N)NC(=O)CN)CSCCc2cc(nc(N)n2)CCSC[C@@H](C(=O)N[C@@H](CCC(N)=O)C(=O)N[C@@H](CCCCN)C(=O)N[C@@H](C)C(=O)N[C@H](C(=O)N[C@@H](CCCCN)C(=O)N[C@@H](CC(C)C)C(=O)N[C@@H](Cc2ccccc2)C(=O)N[C@@H](CO)C(=O)NCC(=O)O)C(C)C)NC(=O)[C@H](C)NC(=O)[C@H](CCC(N)=O)NC(=O)[C@H]([C@@H](C)O)NC(=O)[C@H](CO)NC(=O)[C@H](C(C)C)NC(=O)[C@H](CC(N)=O)NC1=O [SP31] (H-GRRRRRRRRRGGCSGFSTASGKKLNVSTQACQKAVKLFSG-OH; linker 13-31 via X1),,high affinity
